Columns and labels:
[1] = target: T1, ATP-dependent translocase ABCB1 (Homo sapiens, UniProt P08183); test: TP_TRANSPORTER: increase in Doxorubicin intracellular accumulation (Doxorubicin: […], Megestrol acetate: 50 uM) in HCT-116/VM46 cells, flow cytometry; type: functional, cell-based; details: hct-116/vm46, 50 µM
[2] = target: T1, ATP-dependent translocase ABCB1; test: TP_TRANSPORTER: increase in Doxorubicin intracellular accumulation (Doxorubicin: […], Megestrol acetate: 25 uM) in MCF-7/ADR cells, flow cytometry; type: functional, cell-based; details: nci/adr-res

T1 sequence (P08183 whole entry): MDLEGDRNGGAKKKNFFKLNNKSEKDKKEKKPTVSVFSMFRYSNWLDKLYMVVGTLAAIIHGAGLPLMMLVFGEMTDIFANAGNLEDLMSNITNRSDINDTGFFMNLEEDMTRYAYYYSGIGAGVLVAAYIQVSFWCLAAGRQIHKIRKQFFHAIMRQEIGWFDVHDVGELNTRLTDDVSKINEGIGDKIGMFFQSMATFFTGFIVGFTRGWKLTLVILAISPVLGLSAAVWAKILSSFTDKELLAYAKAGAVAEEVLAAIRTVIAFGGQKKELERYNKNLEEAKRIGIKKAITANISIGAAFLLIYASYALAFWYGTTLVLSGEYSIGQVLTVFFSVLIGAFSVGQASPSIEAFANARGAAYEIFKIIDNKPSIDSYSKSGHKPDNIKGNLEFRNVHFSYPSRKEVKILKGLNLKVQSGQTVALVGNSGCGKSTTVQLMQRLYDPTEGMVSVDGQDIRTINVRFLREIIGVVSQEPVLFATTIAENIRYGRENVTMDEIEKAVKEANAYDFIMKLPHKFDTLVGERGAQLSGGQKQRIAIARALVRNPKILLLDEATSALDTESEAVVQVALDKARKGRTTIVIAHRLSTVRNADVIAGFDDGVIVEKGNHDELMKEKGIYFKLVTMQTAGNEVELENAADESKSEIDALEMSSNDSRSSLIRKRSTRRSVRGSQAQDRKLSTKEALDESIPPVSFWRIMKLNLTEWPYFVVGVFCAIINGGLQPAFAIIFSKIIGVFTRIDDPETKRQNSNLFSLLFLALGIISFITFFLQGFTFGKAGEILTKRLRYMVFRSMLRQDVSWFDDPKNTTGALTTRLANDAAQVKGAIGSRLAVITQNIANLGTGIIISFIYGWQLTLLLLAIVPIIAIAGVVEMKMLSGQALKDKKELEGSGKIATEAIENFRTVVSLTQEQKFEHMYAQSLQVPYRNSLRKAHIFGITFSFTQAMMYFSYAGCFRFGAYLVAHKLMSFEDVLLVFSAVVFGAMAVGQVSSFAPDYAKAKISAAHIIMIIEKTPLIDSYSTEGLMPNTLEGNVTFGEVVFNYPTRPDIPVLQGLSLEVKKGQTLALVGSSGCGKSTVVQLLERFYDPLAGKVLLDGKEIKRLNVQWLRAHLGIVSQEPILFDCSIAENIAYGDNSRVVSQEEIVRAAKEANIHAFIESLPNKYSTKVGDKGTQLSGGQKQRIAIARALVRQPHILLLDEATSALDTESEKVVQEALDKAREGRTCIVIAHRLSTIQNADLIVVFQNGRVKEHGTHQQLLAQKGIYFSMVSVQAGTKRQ

- Activity [1]: inhibitor [+]
- Activity [2]: inhibitor [+]
Compound: CC(=O)O[C@]1(C(C)=O)CC[C@H]2[C@@H]3C=C(C)C4=CC(=O)CC[C@]4(C)[C@H]3CC[C@@]21C [MEGESTROL ACETATE]

From ChEMBL document CHEMBL2074353, “Reversal of the human and murine multidrug-resistance phenotype with megestrol acetate” (Cancer Chemother Pharmacol, 1994)
